Several values for one entry are separate records, joined by “and”; a condition that tells them apart may be missing. Equal entries are not always repeated. Inconclusive results and toxic doses are left out. No stated cut-off is given here; in the data, active means T/C of 150% or more; inactive means T/C below 125%.
System: L1210 leukemia ip in BDF1 mice, survival T/C
Assay: NCI In Vivo Anticancer Drug Screen. Data for tumor model L1210 Leukemia (intraperitoneal) in B6D2F1 (BDF1) mice
Conditions: endpoint: mean survival time, higher = longer survival
Summary of the method: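 Value reflects the ratio of survival in compound-treated mice to survival in vehicle-treated controls, with both groups carrying the same transplanted tumor.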

[1] = dose: 100.0 mg/kg/injection, schedule: Q01DX009 (ip), vehicle: Klucel (hydroxypropylcellulose) (HPC)
[2] = dose: 200.0 mg/kg/injection, schedule: Q01DX009 (ip), vehicle: Klucel (hydroxypropylcellulose) (HPC)

Measured: T/C

O=C(NP(=O)(N1CC1)N1CC1)c1cc(I)ccc1I
inactive: dose: 1.0 mg/kg/injection, schedule: Q01DX001 (ip), vehicle: saline with Tween-80 99 % of control | dose: 1.0 mg/kg/injection, schedule: Q01DX001 (ip), vehicle: saline 95 % of control and 98 % of control | dose: 1.0 mg/kg/injection, schedule: Q01DX001 (oral), vehicle: saline with Tween-80 106 % of control | dose: 1.0 mg/kg/injection, schedule: Q01DX001 (oral), vehicle: saline 97 % of control | dose: 1.0 mg/kg/injection, schedule: Q01DX009 (ip), vehicle: saline with Tween-80 103 % of control | dose: 1.0 mg/kg/injection, schedule: Q01DX009 (ip), vehicle: saline 97 % of control | dose: 1.0 mg/kg/injection, schedule: Q04DX003 (ip), vehicle: saline with Tween-80 107 % of control | dose: 1.0 mg/kg/injection, schedule: Q04DX003 (ip), vehicle: saline 104 % of control and 111 % of control | dose: 2.0 mg/kg/injection, schedule: Q01DX001 (ip), vehicle: saline with Tween-80 93 % of control | dose: 2.0 mg/kg/injection, schedule: Q01DX001 (ip), vehicle: saline 100 % of control and 110 % of control | dose: 2.0 mg/kg/injection, schedule: Q01DX001 (oral), vehicle: saline with Tween-80 100 % of control | dose: 2.0 mg/kg/injection, schedule: Q01DX001 (oral), vehicle: saline 94 % of control | dose: 2.0 mg/kg/injection, schedule: Q01DX009 (ip), vehicle: saline with Tween-80 105 % of control | dose: 2.0 mg/kg/injection, schedule: Q04DX003 (ip), vehicle: saline 97 % of control and 111 % of control | dose: 4.0 mg/kg/injection, schedule: Q01DX001 (ip), vehicle: saline with Tween-80 97 % of control | dose: 4.0 mg/kg/injection, schedule: Q01DX001 (ip), vehicle: saline 100 % of control and 108 % of control | dose: 4.0 mg/kg/injection, schedule: Q01DX001 (oral), vehicle: saline with Tween-80 107 % of control | dose: 4.0 mg/kg/injection, schedule: Q01DX001 (oral), vehicle: saline 92 % of control | dose: 4.0 mg/kg/injection, schedule: Q01DX009 (ip), vehicle: saline with Tween-80 101 % of control | dose: 4.0 mg/kg/injection, schedule: Q04DX003 (ip), vehicle: saline with Tween-80 101 % of control | dose: 4.0 mg/kg/injection, schedule: Q04DX003 (ip), vehicle: saline 97 % of control | dose: 8.0 mg/kg/injection, schedule: Q01DX001 (ip), vehicle: saline with Tween-80 101 % of control | dose: 8.0 mg/kg/injection, schedule: Q01DX001 (ip), vehicle: saline 99 % of control and 118 % of control | dose: 8.0 mg/kg/injection, schedule: Q01DX001 (oral), vehicle: saline with Tween-80 101 % of control | dose: 8.0 mg/kg/injection, schedule: Q01DX001 (oral), vehicle: saline 90 % of control | dose: 8.0 mg/kg/injection, schedule: Q01DX009 (ip), vehicle: saline with Tween-80 121 % of control | dose: 8.0 mg/kg/injection, schedule: Q04DX003 (ip), vehicle: saline with Tween-80 115 % of control | dose: 8.0 mg/kg/injection, schedule: Q04DX003 (ip), vehicle: saline 102 % of control | dose: 16.0 mg/kg/injection, schedule: Q01DX001 (ip), vehicle: saline with Tween-80 109 % of control | dose: 16.0 mg/kg/injection, schedule: Q01DX001 (ip), vehicle: saline 100 % of control and 121 % of control | dose: 16.0 mg/kg/injection, schedule: Q01DX001 (oral), vehicle: saline with Tween-80 102 % of control | dose: 16.0 mg/kg/injection, schedule: Q01DX001 (oral), vehicle: saline 97 % of control | dose: 16.0 mg/kg/injection, schedule: Q04DX003 (ip), vehicle: saline 104 % of control | dose: 32.0 mg/kg/injection, schedule: Q01DX001 (ip), vehicle: saline with Tween-80 112 % of control | dose: 32.0 mg/kg/injection, schedule: Q01DX001 (ip), vehicle: saline 99 % of control and 110 % of control | dose: 32.0 mg/kg/injection, schedule: Q01DX001 (oral), vehicle: saline with Tween-80 101 % of control | dose: 32.0 mg/kg/injection, schedule: Q01DX001 (oral), vehicle: saline 96 % of control | dose: 64.0 mg/kg/injection, schedule: Q01DX001 (ip), vehicle: saline with Tween-80 111 % of control | dose: 64.0 mg/kg/injection, schedule: Q01DX001 (ip), vehicle: saline 105 % of control and 116 % of control | dose: 64.0 mg/kg/injection, schedule: Q01DX001 (oral), vehicle: saline with Tween-80 98 % of control | dose: 64.0 mg/kg/injection, schedule: Q01DX001 (oral), vehicle: saline 100 % of control | dose: 64.0 mg/kg/injection, schedule: Q01DX009 (ip), vehicle: saline with Tween-80 112 % of control | dose: 128.0 mg/kg/injection, schedule: Q01DX001 (ip), vehicle: saline with Tween-80 123 % of control | dose: 128.0 mg/kg/injection, schedule: Q01DX001 (ip), vehicle: saline 114 % of control | dose: 128.0 mg/kg/injection, schedule: Q01DX001 (oral), vehicle: saline with Tween-80 109 % of control | dose: 128.0 mg/kg/injection, schedule: Q01DX001 (oral), vehicle: saline 93 % of control | dose: 128.0 mg/kg/injection, schedule: Q01DX009 (ip), vehicle: saline 95 % of control | dose: 256.0 mg/kg/injection, schedule: Q01DX001 (ip), vehicle: saline 124 % of control | dose: 256.0 mg/kg/injection, schedule: Q01DX001 (oral), vehicle: saline 120 % of control | dose: 256.0 mg/kg/injection, schedule: Q04DX003 (ip), vehicle: saline with Tween-80 105 % of control | dose: 512.0 mg/kg/injection, schedule: Q01DX001 (ip), vehicle: saline with Tween-80 99 % of control | dose: 512.0 mg/kg/injection, schedule: Q01DX001 (oral), vehicle: saline 122 % of control | dose: 512.0 mg/kg/injection, schedule: Q04DX003 (ip), vehicle: saline 100 % of control
active: dose: 32.0 mg/kg/injection, schedule: Q01DX009 (ip), vehicle: saline with Tween-80 155 % of control | dose: 32.0 mg/kg/injection, schedule: Q01DX009 (ip), vehicle: saline 162 % of control | dose: 64.0 mg/kg/injection, schedule: Q01DX009 (ip), vehicle: saline 183 % of control | dose: 128.0 mg/kg/injection, schedule: Q04DX003 (ip), vehicle: saline with Tween-80 176 % of control | dose: 128.0 mg/kg/injection, schedule: Q04DX003 (ip), vehicle: saline 151 % of control and 159 % of control | dose: 256.0 mg/kg/injection, schedule: Q04DX003 (ip), vehicle: saline 164 % of control

C=C(Br)CNC(=O)Nc1ccccn1
inactive: [1] 93 % of control | [2] 96 % of control

CC(C)=C1CCC(C)C/C1=N\N=C(N)N (configuration not stated)
inactive: dose: 15.0 mg/kg/injection, schedule: Q01DX Z (ip), vehicle: carboxymethylcellulose (CMC) 100 % of control | dose: 30.0 mg/kg/injection, schedule: Q01DX Z (ip), vehicle: carboxymethylcellulose (CMC) 106 % of control | dose: 60.0 mg/kg/injection, schedule: Q01DX Z (ip), vehicle: carboxymethylcellulose (CMC) 89 % of control | dose: 120.0 mg/kg/injection, schedule: Q01DX Z (oral), vehicle: carboxymethylcellulose (CMC) 97 % of control | dose: 240.0 mg/kg/injection, schedule: Q01DX Z (oral), vehicle: carboxymethylcellulose (CMC) 97 % of control | dose: 480.0 mg/kg/injection, schedule: Q01DX Z (oral), vehicle: carboxymethylcellulose (CMC) 101 % of control

CC(C)OC(=O)COc1ccc(Cl)cc1
inactive: dose: 100.0 mg/kg/injection, schedule: Q01DX009 (ip), vehicle: carboxymethylcellulose (CMC) 101 % of control and 102 % of control | dose: 100.0 mg/kg/injection, schedule: Q04DX002 (ip), vehicle: carboxymethylcellulose (CMC) 101 % of control and 105 % of control | dose: 100.0 mg/kg/injection, schedule: Q04DX003 (ip), vehicle: carboxymethylcellulose (CMC) 102 % of control | dose: 200.0 mg/kg/injection, schedule: Q01DX009 (ip), vehicle: carboxymethylcellulose (CMC) 101 % of control and 91 % of control | dose: 200.0 mg/kg/injection, schedule: Q04DX002 (ip), vehicle: carboxymethylcellulose (CMC) 102 % of control and 106 % of control | dose: 200.0 mg/kg/injection, schedule: Q04DX003 (ip), vehicle: carboxymethylcellulose (CMC) 104 % of control | dose: 400.0 mg/kg/injection, schedule: Q01DX009 (ip), vehicle: carboxymethylcellulose (CMC) 108 % of control and 88 % of control | dose: 400.0 mg/kg/injection, schedule: Q04DX002 (ip), vehicle: carboxymethylcellulose (CMC) 98 % of control and 108 % of control | dose: 400.0 mg/kg/injection, schedule: Q04DX003 (ip), vehicle: carboxymethylcellulose (CMC) 101 % of control

CCOC(=O)/C(C#N)=C\c1ccc(N(C)CCC#N)cc1
inactive: [1] 100 % of control | [2] 96 % of control | dose: 400.0 mg/kg/injection, schedule: Q01DX009 (ip), vehicle: Klucel (hydroxypropylcellulose) (HPC) 94 % of control

COC(=O)C1(O)c2ccccc2-c2ccccc21
inactive: dose: 100.0 mg/kg/injection, schedule: Q01DX001 (ip), vehicle: carboxymethylcellulose (CMC) 103 % of control | dose: 200.0 mg/kg/injection, schedule: Q01DX001 (ip), vehicle: carboxymethylcellulose (CMC) 111 % of control | dose: 400.0 mg/kg/injection, schedule: Q01DX001 (ip), vehicle: carboxymethylcellulose (CMC) 97 % of control

— PubChem BioAssay AID248 (DTP/NCI, 2004)
